Where two headings read alike, the source gives them in different places.
Experiments:
Assay type in all cases: cell-based
A53T α-synuclein = target: T1, A53T α-synuclein (Homo sapiens, UniProt P37840, A53T); experiment: Co-culture assay of A53T EGFP and A53T mcherry SH-SY5Y cells, aggregation of α-synuclein
T1 construct: expressed in transfected cells; host or cells: SH-SY5Y (lentiviral transduction)
Protocol: A degeneration process of converting monomeric α-synuclein into aggregates may mainly cause Parkinson's disease. Therefore, it was tested whether efavirenz is involved in the propagation process of the over-expressed monomeric A53T α-synuclein to adjacent cells, which is converting the over-expressed monomeric α-synuclein into aggregates.
For this purpose, an SH-SY5Y cell line (A53T EGFP cells) in which EGFP-labeled A53T α-synuclein was over-expressed and an SH-SY5Y cell line (A53T mcherry cells) in which mcherry-labeled A53T α-synuclein was over-expressed were prepared using a lentivirus. Thereafter, the A53T EGFP cells and the A53T mcherry cells were mixed to prepare co-cultured cells. Then, the co-cultured cells were treated with DMSO or 5 μM efavirenz, and co-cultured in the presence of 50 μM retinoic acid (RA) for 5 days. The co-cultured cells treated with DMSO were used as the control. At 5 days of the co-culturing, the aggregated α-synuclein (inclusion body-positive cells) was confirmed using a confocal microscope (the rightmost image of fluorescence images shown in FIG. 3A). Also, each of a combined distribution of EGFP and mcherry in the A53T EGFP cells and a combined distribution of mcherry and EGFP in the A53T mcherry cells was confirmed. […] In the rightmost image of the fluorescence images of FIG. 3A, dots indicated in yellow represent the combining of mcherry and EGFP signals in the cells. In the rightmost image of the fluorescence images of FIG. 3A (a diagram in which EGFP+mcherry signals were combined), the dots indicated in yellow were counted to calculate ratios of the dots to the whole cells, and then plotted on a bar graph. A scale bar represents 20 μm, and ***P<0.001 against the control.
Also, to test whether chlorhexidine, naphazoline, and tenofovir were involved in the process of moving the over-expressed monomeric A53T α-synuclein to adjacent cells to convert the over-expressed monomeric α-synuclein into aggregates, the cells were treated with either 10 μM chlorhexidine, 100 μM naphazoline, or 20 μM tenofovir, and then tested in the same manner as in the experiment for efavirenz. However, in the case of the naphazoline-administered group, the cells treated with PBS were used as the control, and the cells treated with DMSO were also used as the control in the case of the chlorhexidine- and tenofovir-administered groups. A scale bar represents 20 μm.

α-synuclein = target: T2, α-synuclein (Homo sapiens, UniProt P37840); experiment: Dual chamber assay, cell-to-cell transmission of α-synuclein in SH-SY5Y cells; conditions: 12 hours
T2 construct: expressed in transfected cells; host or cells: SH-SY5Y
Protocol: A slide glass was included in the plate to stain the cells after the cell culture.
In an insert well of the 12-well plate as the apical chamber, an SH-SY5Y cell line in which α-synuclein was over-expressed was seeded at a density of 4×10^4 cells/well, and in the 12-well plate as the basal chamber, an SH-SY5Y cell line in which α-synuclein was not over-expressed was seeded at a density of 4×10^4 cells/well and they were incubated at a constant temperature. The next day, the insert well was transferred to a place where the 12-well plate was placed to form a dual chamber. Thereafter, the chamber was treated with DMSO or 5 μM efavirenz and incubated at a constant temperature for 12 hours. The SH-SY5Y cells in the plate in which the chamber was treated with DMSO were used as the control. Then, the SH-SY5Y cells in the plate were subjected to immunostaining and observed using a confocal microscope. During the immunostaining, α-synuclein was stained red, and the nuclei were stained blue. Also, fluorescence intensities of α-synuclein in the control and the cells treated with efavirenz were compared. A scale bar represents 20 μm. **P<0.01, ***P<0.001 against the control. […] Also, when the fluorescence intensities of the immunostained α-synuclein were compared, the fluorescence intensity in the cells treated with efavirenz decreased by approximately 80%, compared with that of the control (FIG. 2A).
In the case of the naphazoline-administered group, the cells treated with PBS were used as the control, and the cells treated with DMSO were used as the control in the case of the chlorhexidine- and tenofovir-administered groups. A scale bar represents 20 μm. **P<0.01 and ***P<0.001 against the control.

SH-SY5Y cell line = experiment: Cytotoxicity, cell viability by MTT test; conditions: 24 hours
Protocol: An SH-SY5Y cell line (ATCC) was used to confirm the cytotoxicity of efavirenz.
The SH-SY5Y cell line was seeded in a 96-well plate, cultured, treated with an increasing concentration (0, 5, 25 μM) of efavirenz, and then incubated at a constant temperature for 24 hours. Thereafter, cell viability was measured using an MTT test method. Cells treated with 0 μM efavirenz were used as the control. **P<0.01 against the control.
Also, in the next experiment, the cytotoxicities of chlorhexidine (N,N″″-1,6-hexanediylbis[N′-(4-chlorophenyl)(imidocarbon imidic diamide)]), naphazoline(2-(1-naphthylmethyl)-4,5-dihydro-1H-imidazole), and tenofovir (({[(2R)-1-(6-amino-9H-purin-9-yl)-[…]]oxy}methyl)phosphonic acid) to be used as reference drugs were tested in the same manner as in the cytotoxicity experiment of efavirenz. Cells were treated with chlorhexidine at a concentration of 0, 10, 100 μM, treated with naphazoline at a concentration of 0, 100, 200 μM, and treated with tenofovir at a concentration of 0, 20, 30 μM, and cells treated with each control drug at a concentration of 0 μM was used as the control. *P<0.05, ***P<0.001 against the control.

[1] = 20 μM, 5 days co-culture, DMSO control
[2] = 10 μM, 5 days co-culture, DMSO control

**Q.** With `c1ccc2c(CC3=NCCN3)cccc2c1` [naphazoline, 2-(1-naphthylmethyl)-4,5-dihydro-1H-imidazole] as the compound, how does the “distribution of α-synuclein compared with the control cells” value (A53T α-synuclein) read?
**A.** The value was “increased or were not significantly different”.

**Q.** And the “amount of aggregated α-synuclein compared with the control cells” value (“amount … compared with the control cells” below) (A53T α-synuclein; 100 μM, 5 days co-culture, PBS control)?
**A.** Its value is “increased or were not significantly different”.

**Q.** What about the “cell-to-cell transmission of α-synuclein compared with the control (fluorescence image)” value (α-synuclein; 100 μM, PBS control) of the same compound?
**A.** Its value is “remarkably increased”.

**Q.** For `C[C@H](Cn1cnc2c(N)ncnc21)OCP(=O)(O)O` [tenofovir], which “amount … compared with the control cells” value (A53T α-synuclein; [1]) is on record?
**A.** Its value is “increased or were not significantly different”.

**Q.** And the “distribution of α-synuclein compared with the control cells” value (A53T α-synuclein; [1])?
**A.** The value was “increased or were not significantly different”.

**Q.** And the “cell-to-cell transmission of α-synuclein compared with the control (fluorescence image)” value (α-synuclein; 20 μM, DMSO control)?
**A.** The value was “remarkably increased”.

**Q.** And the “cell viability compared with the control” value (SH-SY5Y cell line; 20 μM)?
**A.** The value was “not changed significantly”.

**Q.** And the “cell viability compared with the control” value (SH-SY5Y cell line; 30 μM)?
**A.** Its value is “significant decrease”.

**Q.** How did the “amount … compared with the control cells” value (A53T α-synuclein; [2]) turn out when `[H]/N=C(\N/C(=N/[H])NCCCCCCNC(=N)NC(=N)Nc1ccc(Cl)cc1)Nc1ccc(Cl)cc1` [chlorhexidine, N,N″″-1,6-hexanediylbis[N′-(4-chlorophenyl)(imidocarbonimidic diamide)]] was run?
**A.** The value was “increased or were not significantly different”.

**Q.** And the “distribution of α-synuclein compared with the control cells” value (A53T α-synuclein; [2])?
**A.** The value was “increased or were not significantly different”.

**Q.** And the “cell-to-cell transmission of α-synuclein compared with the control (fluorescence image)” value (α-synuclein; 10 μM, DMSO control)?
**A.** Its value is “remarkably increased”.

**Q.** For `O=C1Nc2ccc(Cl)cc2[C@@](C#CC2CC2)(C(F)(F)F)O1` [efavirenz, (4S)-6-chloro-(cyclopropylethynyl)-1,4-dihydro-4-(trifluoromethyl)-2H-3,1-benzoxazin-2-one], which “decrease of fluorescence intensity of immunostained α-synuclein compared with the control” value (α-synuclein; 5 μM, DMSO control) is on record?
**A.** The value was “approximately 80%”.

Source: patent US12521398B2, “Composition for treating synucleinopathies” (STANDIGM INC., priority 2019, dated 2026)
